Data published in ChEMBL document CHEMBL1158450, “A small-molecule inhibitor of Nipah virus envelope protein-mediated membrane fusion” (J Med Chem, 2009).
Active and inactive are the calls of the source. The calls are words filed in the database; no cut-off is given here.

How the values were obtained:
[1] = (§1) Cytotoxicity against african green monkey Vero cells after 16 hrs by MTT assay; format: cell-based, Chlorocebus sabaeus; settings: chlorocebus sabaeus, Vero cells
Nipah virus = assay: Inhibition of Nipah virus-mediated cell fusion infected in african green monkey Vero cells assessed as reduction in virus-induced syncytium formation after 24 hrs relative to control; format: functional, organism-based; settings: Henipavirus nipahense
[2] = biological target: T1, Glycoprotein G (Henipavirus nipahense) (UniProt Q9IH62); format: cell-based; settings: Vero, 10 to 200 uM
T1 sequence (whole entry): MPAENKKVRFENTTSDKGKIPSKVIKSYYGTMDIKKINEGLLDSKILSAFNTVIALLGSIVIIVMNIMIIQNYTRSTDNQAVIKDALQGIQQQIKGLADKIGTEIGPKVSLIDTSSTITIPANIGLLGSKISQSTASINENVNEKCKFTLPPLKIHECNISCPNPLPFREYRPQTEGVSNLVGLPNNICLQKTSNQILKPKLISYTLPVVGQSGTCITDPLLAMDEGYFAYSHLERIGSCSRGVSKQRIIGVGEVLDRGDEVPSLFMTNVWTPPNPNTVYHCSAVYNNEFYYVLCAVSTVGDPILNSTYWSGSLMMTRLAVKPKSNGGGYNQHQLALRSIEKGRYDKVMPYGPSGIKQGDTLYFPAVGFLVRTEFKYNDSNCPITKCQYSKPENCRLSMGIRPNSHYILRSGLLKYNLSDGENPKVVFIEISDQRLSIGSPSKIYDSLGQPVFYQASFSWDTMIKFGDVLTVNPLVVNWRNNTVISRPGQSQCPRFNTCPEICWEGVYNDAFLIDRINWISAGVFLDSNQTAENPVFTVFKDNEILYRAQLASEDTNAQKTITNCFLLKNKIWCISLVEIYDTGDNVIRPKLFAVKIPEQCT

Vero [3] = assay: Cytotoxicity against african green monkey Vero cells at 10 to 200 uM after 16 hrs by MTT assay; format: cell-based; settings: chlorocebus sabaeus
Vero [4] = format: cell-based; settings: Measles morbillivirus, 10 to 200 uM
[5] = Selectivity index, CC50 for african green monkey Vero cells to EC50 for Measles virus hemagglutininin/F-mediated cell-cell fusion; format: toxicity, cell-based; settings: read-out: Ratio CC50/EC50
Glycoprotein G = biological target: T2, Glycoprotein G (Henipavirus nipahense, UniProt Q9IH62); format: cell-based; settings: vero
T2 sequence (Q9IH62 whole entry): T1 sequence (whole entry)

Vero [6] = assay: as §1; format: cell-based, Chlorocebus sabaeus; settings: Chlorocebus sabaeus, Vero, 16 h

Row | Structure (SMILES) | CC50 at 16 h [1] | Activity [2] | Activity (Vero [3]) | Activity (Vero [4]) | other results
1 | CCOC(=O)N1CCN(c2cc3c(cc2F)c(=O)c(C(=O)NCc2ccc(Cl)cc2Cl)cn3C2CC2)CC1 | 15 µM |  |  |  | 
2 | NC(=O)C1CCN(c2cc3c(cc2F)c(=O)c(C(=O)NCc2ccc(Cl)cc2Cl)cn3C2CC2)CC1 | > 20 µM |  |  |  | Activity (Nipah virus): Dose-dependent effect
3 | CCn1cc(C(=O)Nc2ccccc2CO)c(=O)c2ccc(C(F)(F)F)cc21 |  | inactive | Not Active | inactive | 
4 | CCn1cc(C(=O)NCc2ccc(Cl)cc2)c(=O)c2ccc(C(F)(F)F)cc21 | > 20 µM |  |  |  | selectivity ratio [5]: > 10
5 | CCn1cc(C(=O)NCC2CC2)c(=O)c2cc(C(F)(F)F)ccc21 |  | inactive | Not Active | inactive | 
6 | C=CCN1[C@@H](c2ccc([N+](=O)[O-])cc2)C(C(=O)OCC)=C(O)C(C(=O)OCC)[C@@H]1c1ccc([N+](=O)[O-])cc1 (some centres not stated) | > 20 µM |  |  |  | 
7 | CCOC(=O)C1CCN(c2cc3c(cc2F)c(=O)c(C(=O)NCc2ccc(Cl)cc2Cl)cn3CC)CC1 | 10 µM |  |  |  | Activity (Nipah virus): Dose-dependent effect
8 | CCn1cc(C(=O)NCc2ccccn2)c(=O)c2cc(F)ccc21 |  | inactive | Not Active | inactive | 
9 | CCn1cc(C(=O)Nc2ccc(F)c(Cl)c2)c(=O)c2ccc(C(F)(F)F)cc21 | > 20 µM |  |  |  | EC50 (Glycoprotein G): Not Active
10 | CCn1cc(C(=O)NCc2ccc(N)cc2)c(=O)c2cc(F)ccc21 |  | inactive | Not Active | inactive | 
11 | CCn1cc(C(=O)NCc2ccc(OC)cc2)c(=O)c2cc(C(F)(F)F)ccc21 |  | inactive | Not Active | inactive | 
12 | CCn1cc(C(=O)NCC2CC2)c(=O)c2cc(F)ccc21 |  | inactive | Not Active | inactive | 
13 | NC(=O)C1CCN(c2cc3c(cc2F)c(=O)c(C(=O)O)cn3C2CC2)CC1 |  | inactive | Not Active | inactive | 
14 | CCOC(=O)N1CCN(c2cc3c(cc2F)c(=O)c(C(=O)NCc2ccc(Cl)cc2Cl)cn3CC)CC1 | > 20 µM |  |  |  | 
15 | Nc1ccc2oc(Cc3ccccc3)nc2c1 |  |  |  |  | selectivity ratio [5]: 20; EC50 (Vero [6]): 8 µM; Activity (Nipah virus): Dose-dependent effect
16 | CCOC(=O)C1CCN(c2cc3c(cc2F)c(=O)c(C(=O)O)cn3CC)CC1 |  | inactive | Not Active | inactive | 
17 | CCn1cc(C(=O)NCc2ccc(OC)cc2)c(=O)c2cc(F)c(Cl)cc21 |  | inactive | Not Active | inactive | 
18 | CCn1cc(C(=O)NCc2ccc(N)cc2)c(=O)c2cc(C(F)(F)F)ccc21 |  | inactive | Not Active | inactive | 
19 | CCn1cc(C(=O)NCc2ccccn2)c(=O)c2cc(C(F)(F)F)ccc21 |  | inactive | Not Active | inactive | 
